Measured values: article PMC9737391, “Trifluoromethylcinnamanilide Michael Acceptors for Treatment of Resistant Bacterial Infections” (International Journal of Molecular Sciences, 2022)
In brackets after ≈: the same amount, converted by molar mass.

Key:
[1] = system: M. tuberculosis H37Ra; set-up: method as in ref 26 = [26]; PMID 30087309; doi:10.3390/ijms19082318; 26. Pospisilova S. Kos J. Michnova H. Kapustikova I. Strharsky T. Oravec M. Moricz A.M. Bakonyi J. Kauerova T. Kollar P. Synthesis and spectrum of biological activities of novel N -arylcinnamamides In; conditions: average over the named compounds; cited from earlier work
[2] = system: Staphylococcus aureus ATCC 29213; assay: MIC, microtitration broth method; type: cell-based; conditions: ATCC29213, S. aureus ATCC 29213
[3] = system: methicillin-resistant S. aureus SA 3202 (MRSA1); assay: MIC, microtitration broth method; type: cell-based; conditions: Staphylococcus aureus; MRSA SA 3202
[4] = system: methicillin-resistant S. aureus SA 630 (MRSA2); assay: MIC, microtitration broth method; type: cell-based; conditions: Staphylococcus aureus; MRSA SA 630
[5] = system: methicillin-resistant S. aureus 63718 (MRSA3); assay: MIC, microtitration broth method; type: cell-based; conditions: Staphylococcus aureus; MRSA 63718
[6] = system: Enterococcus faecalis ATCC 29212; assay: MIC, microtitration broth method; type: cell-based; conditions: ATCC29212, E. faecalis reference strain
[7] = system: vancomycin-resistant E. faecalis VRE 342B (VRE1); assay: MIC, microtitration broth method; type: cell-based, Enterococcus faecalis
[8] = system: vancomycin-resistant E. faecalis VRE 368 (VRE2); assay: MIC, microtitration broth method; type: cell-based, Enterococcus faecalis
[9] = system: vancomycin-resistant E. faecalis VRE 725B (VRE3); assay: MIC, microtitration broth method; type: cell-based, Enterococcus faecalis
[10] = system: Staphylococcus aureus ATCC 29213; assay: MBC, agar aliquot subculture method; type: cell-based; conditions: ATCC29213, S. aureus ATCC 29213
[11] = system: methicillin-resistant S. aureus SA 3202 (MRSA1); assay: MBC, agar aliquot subculture method; type: cell-based; conditions: Staphylococcus aureus; MRSA SA 3202
[12] = system: methicillin-resistant S. aureus SA 630 (MRSA2); assay: MBC, agar aliquot subculture method; type: cell-based; conditions: Staphylococcus aureus; MRSA SA 630
[13] = system: methicillin-resistant S. aureus 63718 (MRSA3); assay: MBC, agar aliquot subculture method; type: cell-based; conditions: Staphylococcus aureus; MRSA 63718
[14] = system: Enterococcus faecalis ATCC 29212; assay: MBC, agar aliquot subculture method; type: cell-based; conditions: ATCC29212, E. faecalis reference strain
[15] = system: vancomycin-resistant E. faecalis VRE 342B (VRE1); assay: MBC, agar aliquot subculture method; type: cell-based, Enterococcus faecalis
[16] = system: vancomycin-resistant E. faecalis VRE 368 (VRE2); assay: MBC, agar aliquot subculture method; type: cell-based, Enterococcus faecalis
[17] = system: vancomycin-resistant E. faecalis VRE 725B (VRE3); assay: MBC, agar aliquot subculture method; type: cell-based, Enterococcus faecalis
[18] = system: S. aureus ATCC 29213; assay: MTT assay, inhibition of bacterial respiration; type: cell-based, Staphylococcus aureus
From the text: The MTT assay can be used to assess cell growth by measuring respiration. Respiratory activity of bacterial cells (which is finally reflected in their viability) less than 70% after exposure to the MIC values for each tested compound is considered as a positive result of this assay. This low level of cell oxidative metabolism indicates inhibition of cell growth by inhibition of respiration. The lowest multiples of MIC values that achieved more than 70% inhibition of S. aureus ATCC 29213 viability (%) are shown in Table 3.
The percent inhibition of respiration of S. aureus ATCC 29213 was determined through the MTT assay. The assay was performed as described recently. The percent viability is calculated through the comparison of a measured value and that of the uninhibited control: % viability = OD570E/OD570P × 100, where OD570E is the reading from the compound-exposed cells, while OD570P is the reading from the uninhibited cells (positive control). Cytotoxic potential is determined by a percent viability of <70% [46, 47].

[19] = Lipophilicity determination by RP-HPLC; type: physicochemical; conditions: RP-HPLC, logarithm of capacity factor k
Experimental: It is evident from the graphs in Figure 1 that the correlation coefficients of the dependences of log k/log D6.5/log D7.4 have a value of r = 0.999 (n = 32), which means that the investigated compounds behave insignificantly differently in aqueous media with different pH. Moreover, lipophilicity was calculated as log P and Clog P using two prediction programs. […] Therefore, only log P values predicted by ACD/Percepta can be used for correlations with experimental values. These matches are shown in the graphs in Figure 2, and according to the correlation coefficient r~0.940 (n = 32), it can be argued that even the predicted lipophilicity values correlate with the experimentally measured ones. However, the largest variations were observed (no difference for series 1, 2) for compounds substituted with 2-Cl, 2-CF3, 2,5-Cl, 4-F, 4-CF3, and 3,5-F, 3,5-Cl. These are mainly substituents capable of forming hydrogen and other types of non-bonding interactions both with the surrounding environment and within the molecule. Overall, series 1 (3-CF3) is less lipophilic than series 2 (4-CF3), but the differences in the experimental data are insignificant. Unsubstituted derivatives 1a/2a are the least lipophilic compounds, while derivatives 1o/2o (3,5-Cl) and 1p/2p (3,5-CF3) are the most lipophilic compounds.
Experimental determination of lipophilicity values (log k, log D6.5, and log D7.4) was performed under the same conditions and on the same device as described by Strharsky et al..

[20] = system: M. smegmatis ATCC 700084; assay: In vitro antimycobacterial evaluation (MIC); type: cell-based, Mycobacterium smegmatis; conditions: Mycolicibacterium smegmatis, ATCC700084
[21] = system: human monocytic leukemia cell line THP-1; assay: In vitro cell viability (cytotoxicity screening); type: cell-based; conditions: 24 h, medium with 10% FBS, ± SD, n = 6
Experimental: The investigated anilides can be divided into three groups. […] Higher concentrations (than 10 or 30 µM) were not possible to evaluate due to precipitation of the tested compounds in water medium. Based on all these observations, it can be concluded that the high antimicrobial activity of 3,5-CF3-substituted compounds is associated with significant cytotoxic effect against eukaryotic cells. On the other hand, the other still effective compounds, especially agents 1j and 1o, have an insignificant toxic effect, which makes them interesting for further study.
Human monocytic leukemia THP-1 cells obtained from the European Collection of Cell Cultures (ECACC, Salisbury, UK) were used for in vitro antiproliferative assays. A recently described procedure was used.

[22] = system: M. smegmatis and M. marinum; assay: Antimycobacterial activity, summary over both strains; type: cell-based; conditions: average over the named compounds and strains; read-out: average MIC against M. smegmatis and M. marinum

In the case of O=C(/C=C/c1ccccc1)Nc1ccc(Cl)c(Cl)c1 [3e], the “average MIC against M. tuberculosis H37Ra” value [1] is listed as ~ 24 µM.
CC1(C)S[C@@H]2[C@H](NC(=O)[C@H](N)c3ccccc3)C(=O)N2[C@H]1C(=O)O [AMP, ampicillin, reference compound] gave an MIC [2] of 5.72 µM (≈ 2 µg/mL), an MIC [3] of 45.8 µM (≈ 16 µg/mL) and an MIC [4] of 45.8 µM (≈ 16 µg/mL). The MIC [5] was 45.8 µM (≈ 16 µg/mL), the MIC [6] was 2.81 µM (≈ 0.982 µg/mL) and the MIC [7] was 11.5 µM (≈ 4.02 µg/mL). For the same compound, the MIC [8] was 11.5 µM (≈ 4.02 µg/mL), the MIC [9] was 11.5 µM (≈ 4.02 µg/mL) and the MBC [10] was > 5.72 µM. The MBC [11] was > 45.8 µM, the MBC [12] was > 45.8 µM and the MBC [13] was > 45.8 µM. The MBC [14] was 2.81 µM (≈ 0.982 µg/mL), the MBC [15] was 11.5 µM (≈ 4.02 µg/mL) and the MBC [16] was 11.5 µM (≈ 4.02 µg/mL). For the same compound, the MBC [17] was 11.5 µM (≈ 4.02 µg/mL), the “Conc.: lowest multiple of MIC with at least 70% inhibition of respiratory activity” value [18] was 8× MIC (>8× MBC) and the “Conc.: the same concentration as multiple of MBC” value (“Conc.: the same concentration” for short) [18] was 8× MIC (>8× MBC).
O=C(/C=C/c1cccc(C(F)(F)F)c1)Nc1cccc(Cl)c1 [1f, (2E)-N-(3-Chlorophenyl)-3-[3-(trifluoromethyl)phenyl]prop-2-enamide] showed a log k [19] of 0.8016, an MIC [2] of 12.3 µM (≈ 4.01 µg/mL) and an MIC [3] of 6.14 µM (≈ 2 µg/mL). The MIC [4] was 6.14 µM (≈ 2 µg/mL), the MIC [5] was 6.14 µM (≈ 2 µg/mL) and the MIC [20] was 24.6 µM (≈ 8.01 µg/mL). The MBC [10] was 12.3 µM (≈ 4.01 µg/mL), the MBC [11] was 6.14 µM (≈ 2 µg/mL) and the MBC [12] was 6.14 µM (≈ 2 µg/mL). The MBC [13] was 12.3 µM (≈ 4.01 µg/mL), the IC50 [21] was > 10 µM and the “Conc.: lowest multiple of MIC with at least 70% inhibition of respiratory activity” value [18] was 1× MIC (1× MBC). The “Conc.: the same concentration” value [18] was 1× MIC (1× MBC) and the melting point was 126 to 128 °C.
O=C(/C=C/c1cccc(C(F)(F)F)c1)Nc1cc(C(F)(F)F)cc(C(F)(F)F)c1 [1p, (2E)-N-[3,5-bis(Trifluoromethyl)phenyl]-3-[3-(trifluoromethyl)phenyl]prop-2-enamide] showed a log k [19] of 1.3648, an MIC [2] of 1.17 µM (≈ 0.5 µg/mL) and an MIC [3] of 2.34 µM (≈ 1 µg/mL). It also gave an MIC [4] of 1.17 µM (≈ 0.5 µg/mL), an MIC [5] of 0.585 µM (≈ 0.25 µg/mL) and an MIC [20] of 9.36 µM (≈ 4 µg/mL). The MBC [10] was 1.17 µM (≈ 0.5 µg/mL), the MBC [11] was 2.34 µM (≈ 1 µg/mL) and the MBC [12] was 1.17 µM (≈ 0.5 µg/mL). For the same compound, the MBC [13] was 1.17 µM (≈ 0.5 µg/mL), the IC50 [21] was 6.7 ± 1.1 µM and the “Conc.: lowest multiple of MIC with at least 70% inhibition of respiratory activity” value [18] was 1× MIC (1× MBC). The “Conc.: the same concentration” value [18] was 1× MIC (1× MBC), the MIC [22] was ~4.1 µM (≈ 1.75 µg/mL) and the melting point was 147 to 149 °C.
